According to ChEMBL document CHEMBL3301361, “Experimental in vitro DMPK and physicochemical data on a set of publicly disclosed compounds”:
≈ marks a conversion by molar mass, not a printed value.

Columns and labels:
[1] = physchem; conditions: octan-1-ol/water, pH 7.4, LogD7.4
[2] = physchem; conditions: pH 7.4 buffer

## CCn1c(=O)c2[nH]c(-c3ccccc3)nc2n(CC)c1=O
[1]
  logD: 3.3
[2]
  solubility thermodynamic: 2.1 µM (≈ 0.597 µg/mL)

## Cc1ncc(-c2ccnc(Nc3ccccc3)n2)n1C(C)C
[1]
  logD: 3.58
[2]
  solubility thermodynamic: 35.5 µM (≈ 10.4 µg/mL)

## O=C(NCCSCc1ccccc1)c1ccccc1
[1]
  logD: 3.3
[2]
  solubility thermodynamic: 72.4 µM (≈ 19.6 µg/mL)

## COCC(=O)N1CCC(n2cc(-c3cnc(N)c(-c4nc5ccccc5o4)c3)cn2)CC1
[1]
  logD: 3.4
[2]
  solubility thermodynamic: 1.9 µM (≈ 0.822 µg/mL)

## CS(=O)(=O)c1cccc(Nc2nccc(Nc3cccc4ccoc34)n2)c1
[1]
  logD: 3.52
[2]
  solubility thermodynamic: 5.4 µM (≈ 2.05 µg/mL)

## COc1ccc(Cl)cc1NC(=O)Nc1cnccn1
[1]
  logD: 3.63
[2]
  solubility thermodynamic: 0.7 µM (≈ 0.195 µg/mL)

## Cc1nc(CSc2ccc(Cl)cc2)cc(N2CCOCC2)n1
[1]
  logD: 3.38
[2]
  solubility thermodynamic: 107 µM (≈ 36 µg/mL)

## Oc1nc(-c2ccccc2)c(-c2ccccc2)o1
[1]
  logD: 3.42
[2]
  solubility thermodynamic: 107 µM (≈ 25.4 µg/mL)

## CC(Nc1ncnc2ccccc12)c1ccccc1 (configuration not stated)
[1]
  logD: 3.4
[2]
  solubility thermodynamic: 123 µM (≈ 30.7 µg/mL)

## COc1ccc(-c2nc3n(c2Br)CCC3)cc1
[1]
  logD: 3.3
[2]
  solubility thermodynamic: 25.1 µM (≈ 7.36 µg/mL)

## COc1ccc(-c2csc(N(CCCN3CCOCC3)C(=O)c3ccco3)n2)cc1
[1]
  logD: 3.34
[2]
  solubility thermodynamic: 1.1 µM (≈ 0.47 µg/mL)

## Nc1nc(-c2ccc(Cl)cc2)cs1
[1]
  logD: 3.31
[2]
  solubility thermodynamic: 83.2 µM (≈ 17.5 µg/mL)

## O=C(CN1CCOCC1)Nc1ccc(-c2cccc3c(=O)cc(N4CCOCC4)oc23)cc1OCC1CC1
[1]
  logD: 3.3
[2]
  solubility thermodynamic: 1.5 µM (≈ 0.779 µg/mL)

## O=C(c1ccc(F)cc1)C1CCN(C(=S)Nc2ccc(F)cc2)CC1
[1]
  logD: 3.4
[2]
  solubility thermodynamic: 2.5 µM (≈ 0.901 µg/mL)

## COCCOc1cc(Nc2nccc(N(C)c3cc(CO)ccc3C)n2)cc(N2CCOCC2)c1
[1]
  logD: 3.3
[2]
  solubility thermodynamic: 126 µM (≈ 60.4 µg/mL)

## Cc1ccc(CO)cc1N(C)c1ccnc(Nc2cc(N3CCOCC3)nc(N3CCOCC3)c2)n1
[1]
  logD: 3.44
[2]
  solubility thermodynamic: 39.8 µM (≈ 19.6 µg/mL)

## COc1cc(C(=O)N2CCOCC2)ccc1Nc1ncc(Cl)c(-c2cnc3ccccn23)n1
[1]
  logD: 3.4
[2]
  solubility thermodynamic: 1.6 µM (≈ 0.744 µg/mL)

## COc1cc(N2CCN(C(C)=O)CC2)ccc1Nc1ncc(Cl)c(-c2cnc3c(N)cccn23)n1
[1]
  logD: 3.4
[2]
  solubility thermodynamic: 0.9 µM (≈ 0.444 µg/mL)

## COc1cc(N2CCN(C(C)=O)CC2)ccc1Nc1ncc(Cl)c(-c2cnc3cc(N4CCCC4)ccn23)n1
[1]
  logD: 3.5
[2]
  solubility thermodynamic: 1.4 µM (≈ 0.766 µg/mL)

## O=C(NCC(=O)N(CCO)c1ccccc1)c1cc2cc(Cl)ccc2[nH]1
[1]
  logD: 3.37
[2]
  solubility thermodynamic: 1.8 µM (≈ 0.669 µg/mL)

## C=CCN(C(=O)NCc1ccc(OC)cc1)C1CCN(CCC(c2ccccc2)c2ccccc2)CC1
[1]
  logD: 3.6
[2]
  solubility thermodynamic: 53.7 µM (≈ 26.7 µg/mL)

## O=C(Nc1ccccc1)c1ccc(OCCCN2CCCC2)cc1OCc1cccc(F)c1
[1]
  logD: 3.67
[2]
  solubility thermodynamic: 44.7 µM (≈ 20 µg/mL)

## CN(C(=O)NCc1ccccc1)C1CCN(CCC(c2ccccc2)c2ccccc2)CC1
[1]
  logD: 3.4
[2]
  solubility thermodynamic: 25.7 µM (≈ 11.3 µg/mL)

## CCOC(=O)c1ccc(OCCC2(C#N)CCN(c3ccc(C)nn3)CC2)cc1
[1]
  logD: 3.54
[2]
  solubility thermodynamic: 58.9 µM (≈ 23.2 µg/mL)

## COc1ccc(C(=O)Nc2cccc(NC(=O)c3cccc(N(C)C)c3)c2)cc1OC
[1]
  logD: 3.67
[2]
  solubility thermodynamic: 1.4 µM (≈ 0.587 µg/mL)

## COc1cc2ncnc(Nc3cc(NC(=O)c4cccc(N5CCOCC5)c4)ccc3C)c2cc1OC
[1]
  logD: 3.6
[2]
  solubility thermodynamic: 14.5 µM (≈ 7.24 µg/mL)

## COc1cc2ncnc(Nc3cc(NC(=O)c4ccnc(N5CCOCC5)c4)ccc3C)c2cc1OCCN1CCCCC1
[1]
  logD: 3.35
[2]
  solubility thermodynamic: 813 µM (≈ 486 µg/mL)

## COc1ccc(-c2c(-c3ccc(O)cc3O)n[nH]c2C)cc1
[1]
  logD: 3.37
[2]
  solubility thermodynamic: 209 µM (≈ 61.9 µg/mL)

## CCn1cc(NC(=O)Cc2ccc(Oc3ccnc4cc(OC)c(OC)cc34)cc2OC)cn1
[1]
  logD: 3.42
[2]
  solubility thermodynamic: 22.9 µM (≈ 10.6 µg/mL)

## Cc1nn(C2CCN(C)CC2)cc1-c1cnc(N)c(-c2nc3ccccc3o2)c1
[1]
  logD: 3.4
[2]
  solubility thermodynamic: 21.4 µM (≈ 8.31 µg/mL)

## Cc1cccc(Nc2nnc(C(=O)Nc3ccc(N4CCOCC4)nc3)o2)c1
[1]
  logD: 3.42
[2]
  solubility thermodynamic: 4.8 µM (≈ 1.83 µg/mL)

## O=C(Nc1ccc(Cl)c(Cl)c1)N1CCN(C[C@@H]2CCCN(C3CC3)C2)CC1
[1]
  logD: 3.57
[2]
  solubility thermodynamic: 288 µM (≈ 119 µg/mL)

## Cc1ccc(NC(=O)N2CCN(C[C@@H]3CCCN(C4CC4)C3)CC2)cc1Cl
[1]
  logD: 3.37
[2]
  solubility thermodynamic: 575 µM (≈ 225 µg/mL)

## COc1cc2ncnc(Nc3cccc(Cl)c3F)c2cc1CN1CCC[C@H]1C(N)=O
[1]
  logD: 3.58
[2]
  solubility thermodynamic: 257 µM (≈ 110 µg/mL)

## COc1cc2ncnc(Nc3cccc(Cl)c3F)c2cc1CN(C)[C@@H](C)C(N)=O
[1]
  logD: 3.42
[2]
  solubility thermodynamic: 42.7 µM (≈ 17.8 µg/mL)

## CN1CCC(n2cc(-c3cnc(N)c(-c4nc5ccc(F)cc5o4)c3)cn2)CC1
[1]
  logD: 3.35
[2]
  solubility thermodynamic: 13.5 µM (≈ 5.3 µg/mL)

## COc1cc2ncnc(Nc3cccc(Cl)c3F)c2cc1CN(C)[C@H](C)C(N)=O
[1]
  logD: 3.44
[2]
  solubility thermodynamic: 41.7 µM (≈ 17.4 µg/mL)

## COc1cc2ncnc(Nc3cccc(Cl)c3F)c2cc1CN1CCC[C@@H]1C(N)=O
[1]
  logD: 3.58
[2]
  solubility thermodynamic: 195 µM (≈ 83.8 µg/mL)

## CCCc1cc(Nc2nc(NCc3cc(C)no3)ncc2Br)n[nH]1
[1]
  logD: 3.63
[2]
  solubility thermodynamic: 2.7 µM (≈ 1.06 µg/mL)

## CCCSc1ncccc1C(=O)N(C)C1CCCCC1
[1]
  logD: 3.36
[2]
  solubility thermodynamic: 955 µM (≈ 279 µg/mL)

## COc1cc2c(Nc3cc(CC(=O)Nc4cccc(F)c4F)[nH]n3)ncnc2cc1OCCCN(CCO)CC(C)C
[1]
  logD: 3.61
[2]
  solubility thermodynamic: 132 µM (≈ 76.9 µg/mL)

## COc1cc2ncnc(Nc3ccc(Cl)c(O)c3)c2cc1OC
[1]
  logD: 3.3
[2]
  solubility thermodynamic: 1.4 µM (≈ 0.464 µg/mL)

## COc1cc2c(Nc3ccc(Cl)cc3F)ncnc2cc1OCCCN1CCOCC1
[1]
  logD: 3.4
[2]
  solubility thermodynamic: 21.9 µM (≈ 9.79 µg/mL)

## CN(C)CCOc1ccc(-c2oc3ncnc(NC[C@@H]4CCCO4)c3c2-c2ccccc2)cc1
[1]
  logD: 3.6
[2]
  solubility thermodynamic: 69.2 µM (≈ 31.7 µg/mL)

## Cc1ccc(Oc2ccc(Nc3ncnc4[nH]nc(OCCN5CCC(O)CC5)c34)cc2Cl)cn1
[1]
  logD: 3.4
[2]
  solubility thermodynamic: 28.2 µM (≈ 14 µg/mL)

## COc1cc2ncnc(Nc3ccc(F)c(Cl)c3)c2cc1OCCCN1CCCCC1
[1]
  logD: 3.3
[2]
  solubility thermodynamic: 20 µM (≈ 8.9 µg/mL)

## COc1cc2ncnc(Nc3ccc(F)c(Cl)c3)c2cc1OCCN1CCN(C)CC1
[1]
  logD: 3.3
[2]
  solubility thermodynamic: 64.6 µM (≈ 28.8 µg/mL)

## COc1cc2ncnc(Nc3ccc(F)c(Cl)c3)c2cc1OC
[1]
  logD: 3.67
[2]
  solubility thermodynamic: 7.2 µM (≈ 2.4 µg/mL)

## CS(=O)(=O)n1c2ccccc2c2cc(NC(=O)CCc3ccncc3)ccc21
[1]
  logD: 3.4
[2]
  solubility thermodynamic: 22.9 µM (≈ 9.01 µg/mL)

## O=C(CCc1ccncc1)Nc1ccc(C(=O)c2ccccc2)cc1
[1]
  logD: 3.4
[2]
  solubility thermodynamic: 8.1 µM (≈ 2.68 µg/mL)

## CN(C)C(=O)[C@H](Cc1ccccc1)NC(=O)c1cc2cc(F)ccc2[nH]1
[1]
  logD: 3.5
[2]
  solubility thermodynamic: 3.6 µM (≈ 1.27 µg/mL)

## Oc1cccc2nc(-c3ccccc3)cc(O)c12
[1]
  logD: 3.37
[2]
  solubility thermodynamic: 5 µM (≈ 1.19 µg/mL)

## O=C(CO)N1CCC[C@H]1COc1cccc2ncnc(Nc3ccc(OCc4ccccn4)c(Cl)c3)c12
[1]
  logD: 3.62
[2]
  solubility thermodynamic: 1.9 µM (≈ 0.988 µg/mL)

## COc1cc(Nc2ncnc3cccc(O[C@H](C)C(=O)N4CCOCC4)c23)ccc1Oc1ccc(C)nc1
[1]
  logD: 3.6
[2]
  solubility thermodynamic: 37.2 µM (≈ 19.2 µg/mL)

## Oc1ccc(-c2nc3ccc(O)cc3s2)cc1
[1]
  logD: 3.65
[2]
  solubility thermodynamic: 27.5 µM (≈ 6.69 µg/mL)

## Cc1ncc(-c2ccnc(Nc3ccc(N(C)C)cc3)n2)n1C(C)C
[1]
  logD: 3.51
[2]
  solubility thermodynamic: 100 µM (≈ 33.6 µg/mL)

## Cc1ncc(-c2ccnc(Nc3ccc(F)cc3)n2)n1C(C)C
[1]
  logD: 3.62
[2]
  solubility thermodynamic: 107 µM (≈ 33.4 µg/mL)

## COc1ccc(Nc2nccc(-c3cnc(C)n3C(C)C)n2)cc1
[1]
  logD: 3.43
[2]
  solubility thermodynamic: 209 µM (≈ 67.6 µg/mL)

## CCCS(=O)(=O)c1ccc(Nc2nccc(-c3cnc(C)n3C(C)C)n2)cc1
[1]
  logD: 3.37
[2]
  solubility thermodynamic: 138 µM (≈ 55.1 µg/mL)

## CC(C)C[C@H](NC(=O)N1CCOCC1)C(=O)N[C@H](/C=C/S(=O)(=O)c1ccccc1)CCc1ccccc1
[1]
  logD: 3.4
[2]
  solubility thermodynamic: 17 µM (≈ 8.97 µg/mL)

## COc1cc2ncc(C(N)=O)c(Nc3cccc(Cl)c3)c2cc1OC
[1]
  logD: 3.5
[2]
  solubility thermodynamic: 10 µM (≈ 3.58 µg/mL)

## CC(C)Oc1cc(Oc2ccc(S(C)(=O)=O)cc2)cc(C(=O)Nc2nccs2)c1
[1]
  logD: 3.61
[2]
  solubility thermodynamic: 5.2 µM (≈ 2.25 µg/mL)

## COc1ccccc1Nc1cc(Oc2cc(C)c(C)nc2-c2ccccn2)ccn1
[1]
  logD: 3.37
[2]
  solubility thermodynamic: 22.9 µM (≈ 9.12 µg/mL)

## O=C(N1CCN(c2ccncc2Cl)CC1)N1CCN(S(=O)(=O)c2ccc(C(F)(F)F)cc2)CC1
[1]
  logD: 3.54
[2]
  solubility thermodynamic: 3.9 µM (≈ 2.02 µg/mL)

## COCCCNS(=O)(=O)c1ccc(Nc2nccc(-c3cnc4ccccn34)n2)cc1
[1]
  logD: 3.41
[2]
  solubility thermodynamic: 2.4 µM (≈ 1.05 µg/mL)

## COc1ccc(Cn2cc3c(=O)n(C)c(=O)n(CC(C)C)c3c2)cc1
[1]
  logD: 3.52
[2]
  solubility thermodynamic: 17 µM (≈ 5.8 µg/mL)
